The text below walks through data of ChEMBL document CHEMBL5360622, “Leucettinibs, a Class of DYRK/CLK Kinase Inhibitors Inspired by the Marine Sponge Natural Product Leucettamine B” (J Med Chem, 2023).

The target of assay [1] is Casein kinase I isoform epsilon (Homo sapiens, UniProt P49674). The following applies: dose 10.0 µM.
Assay [2] concerns the target Myotonin-protein kinase (Homo sapiens) (UniProt Q09013). As to conditions: dose 10.0 µM.
Assay [3] deals with Dual specificity protein kinase CLK3 (Homo sapiens, UniProt P49761). The assay is classed as cell-based, Sf9.
Sequence of Dual specificity protein kinase CLK3 (P49761 whole entry, canonical isoform): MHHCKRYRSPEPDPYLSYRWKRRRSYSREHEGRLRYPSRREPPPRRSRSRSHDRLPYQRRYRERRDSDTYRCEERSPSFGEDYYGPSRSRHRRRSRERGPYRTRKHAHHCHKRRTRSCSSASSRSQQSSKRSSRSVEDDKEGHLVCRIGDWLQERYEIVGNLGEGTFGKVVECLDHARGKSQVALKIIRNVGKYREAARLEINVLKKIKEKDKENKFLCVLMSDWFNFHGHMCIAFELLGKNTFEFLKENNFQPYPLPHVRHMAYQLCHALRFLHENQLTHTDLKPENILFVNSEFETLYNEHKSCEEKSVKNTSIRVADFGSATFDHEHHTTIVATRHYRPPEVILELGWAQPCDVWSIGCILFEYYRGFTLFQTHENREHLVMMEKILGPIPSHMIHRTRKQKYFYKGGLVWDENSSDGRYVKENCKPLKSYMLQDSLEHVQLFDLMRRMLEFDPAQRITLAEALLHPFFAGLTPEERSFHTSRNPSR
The target of assay [4] is Casein kinase I isoform delta (Homo sapiens) (UniProt P48730). As to conditions: dose 10.0 µM.
Sequence of Casein kinase I isoform delta (Homo sapiens) (P48730 whole entry, looked up, canonical isoform): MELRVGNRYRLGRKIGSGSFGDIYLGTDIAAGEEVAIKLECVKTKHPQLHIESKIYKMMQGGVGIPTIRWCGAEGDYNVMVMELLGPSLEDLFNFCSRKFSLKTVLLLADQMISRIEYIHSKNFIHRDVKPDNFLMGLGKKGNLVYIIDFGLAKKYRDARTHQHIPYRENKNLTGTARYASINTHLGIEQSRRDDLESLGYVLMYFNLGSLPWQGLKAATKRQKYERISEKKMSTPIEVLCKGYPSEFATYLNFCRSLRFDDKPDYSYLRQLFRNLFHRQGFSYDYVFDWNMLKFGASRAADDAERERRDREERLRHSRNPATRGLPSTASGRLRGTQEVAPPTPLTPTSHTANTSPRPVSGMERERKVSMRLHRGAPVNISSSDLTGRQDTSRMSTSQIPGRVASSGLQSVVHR
Assay [5] concerns the target AP2-associated protein kinase 1 (Homo sapiens) (UniProt Q2M2I8). As to conditions: dose 10.0 µM.
Assay [6] concerns the target T1, Mitogen-activated protein kinase 15 (Homo sapiens) (UniProt Q8TD08).
T1 sequence (whole entry): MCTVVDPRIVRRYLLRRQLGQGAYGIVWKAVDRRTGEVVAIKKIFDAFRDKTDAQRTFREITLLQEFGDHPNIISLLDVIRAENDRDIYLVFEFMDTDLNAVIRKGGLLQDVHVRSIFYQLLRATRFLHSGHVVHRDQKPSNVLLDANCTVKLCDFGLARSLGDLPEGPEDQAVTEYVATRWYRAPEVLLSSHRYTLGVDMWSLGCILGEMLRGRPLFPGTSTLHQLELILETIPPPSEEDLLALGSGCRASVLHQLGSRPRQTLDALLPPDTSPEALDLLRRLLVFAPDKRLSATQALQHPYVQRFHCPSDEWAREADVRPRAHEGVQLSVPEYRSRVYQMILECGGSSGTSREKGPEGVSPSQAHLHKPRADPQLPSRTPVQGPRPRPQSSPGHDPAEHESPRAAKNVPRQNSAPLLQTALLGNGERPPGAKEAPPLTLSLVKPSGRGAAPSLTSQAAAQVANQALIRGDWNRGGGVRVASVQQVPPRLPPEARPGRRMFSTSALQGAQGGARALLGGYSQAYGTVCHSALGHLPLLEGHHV
The following applies: dose 10.0 µM.

Sequence of Casein kinase I isoform epsilon (P49674 whole entry, looked up, canonical isoform): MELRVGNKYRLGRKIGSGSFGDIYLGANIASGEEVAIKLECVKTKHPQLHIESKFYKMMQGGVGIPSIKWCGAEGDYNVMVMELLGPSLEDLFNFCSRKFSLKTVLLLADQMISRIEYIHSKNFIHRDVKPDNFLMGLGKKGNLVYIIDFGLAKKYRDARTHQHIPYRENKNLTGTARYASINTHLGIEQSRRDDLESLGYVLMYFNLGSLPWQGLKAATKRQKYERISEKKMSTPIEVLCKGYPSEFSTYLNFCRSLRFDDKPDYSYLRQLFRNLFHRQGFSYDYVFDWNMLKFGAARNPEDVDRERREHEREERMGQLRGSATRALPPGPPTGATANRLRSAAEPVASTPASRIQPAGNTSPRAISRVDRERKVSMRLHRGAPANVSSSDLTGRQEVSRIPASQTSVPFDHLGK
Sequence of Myotonin-protein kinase (Homo sapiens) (Q09013 whole entry): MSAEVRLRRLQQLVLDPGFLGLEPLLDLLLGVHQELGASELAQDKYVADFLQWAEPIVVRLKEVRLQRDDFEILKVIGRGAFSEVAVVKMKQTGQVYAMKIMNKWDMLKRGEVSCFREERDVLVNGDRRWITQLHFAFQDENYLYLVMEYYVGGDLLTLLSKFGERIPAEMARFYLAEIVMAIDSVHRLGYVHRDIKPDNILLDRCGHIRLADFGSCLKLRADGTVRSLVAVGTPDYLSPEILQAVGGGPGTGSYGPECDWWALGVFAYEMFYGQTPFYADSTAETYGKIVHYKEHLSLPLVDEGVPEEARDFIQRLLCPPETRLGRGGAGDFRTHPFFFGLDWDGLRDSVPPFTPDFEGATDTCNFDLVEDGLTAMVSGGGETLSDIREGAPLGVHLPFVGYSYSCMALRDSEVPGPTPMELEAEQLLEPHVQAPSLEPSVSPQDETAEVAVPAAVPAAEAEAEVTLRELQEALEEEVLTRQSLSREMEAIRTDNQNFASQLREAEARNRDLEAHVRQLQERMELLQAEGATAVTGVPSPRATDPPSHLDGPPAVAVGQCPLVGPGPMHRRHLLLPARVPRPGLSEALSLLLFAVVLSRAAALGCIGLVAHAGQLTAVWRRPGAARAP
Sequence of AP2-associated protein kinase 1 (Homo sapiens) (Q2M2I8 whole entry, looked up): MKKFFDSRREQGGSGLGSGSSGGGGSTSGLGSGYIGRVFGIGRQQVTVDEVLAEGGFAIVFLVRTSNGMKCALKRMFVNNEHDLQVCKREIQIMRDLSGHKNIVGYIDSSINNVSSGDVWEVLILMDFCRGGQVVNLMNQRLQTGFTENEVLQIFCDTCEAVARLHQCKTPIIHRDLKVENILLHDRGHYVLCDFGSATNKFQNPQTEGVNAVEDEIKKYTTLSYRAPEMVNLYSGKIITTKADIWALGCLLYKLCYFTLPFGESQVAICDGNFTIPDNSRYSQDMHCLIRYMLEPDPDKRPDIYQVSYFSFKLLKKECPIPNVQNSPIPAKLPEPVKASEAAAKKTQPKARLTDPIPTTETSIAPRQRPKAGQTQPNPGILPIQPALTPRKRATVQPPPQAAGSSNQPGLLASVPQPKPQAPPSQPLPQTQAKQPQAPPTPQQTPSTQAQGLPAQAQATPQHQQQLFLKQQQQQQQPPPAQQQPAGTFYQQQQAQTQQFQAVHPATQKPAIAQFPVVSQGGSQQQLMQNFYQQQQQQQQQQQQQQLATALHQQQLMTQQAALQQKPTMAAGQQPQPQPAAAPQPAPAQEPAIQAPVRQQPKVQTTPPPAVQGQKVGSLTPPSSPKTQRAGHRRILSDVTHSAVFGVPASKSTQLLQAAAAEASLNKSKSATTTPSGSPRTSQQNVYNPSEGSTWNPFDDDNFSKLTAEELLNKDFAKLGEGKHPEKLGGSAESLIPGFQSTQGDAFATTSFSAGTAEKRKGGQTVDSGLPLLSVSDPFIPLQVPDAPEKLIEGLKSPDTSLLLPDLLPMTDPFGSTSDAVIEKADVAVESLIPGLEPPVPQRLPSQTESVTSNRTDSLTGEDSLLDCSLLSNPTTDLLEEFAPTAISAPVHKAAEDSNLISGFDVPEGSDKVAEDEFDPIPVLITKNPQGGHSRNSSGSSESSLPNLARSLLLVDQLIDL

In the case of `O=C1NC(NC23CC4CC(CC(C4)C2)C3)=N/C1=C\c1ccc2scnc2c1`, the thermal shift (ΔTm) in assay [1] was -2.5 °C; in assay [2], 0.1 °C; in assay [4], 1.4 °C; in assay [5] it was 0 °C; in assay [6], -0.2 °C. The molecule also came in with a concentration for half-maximal inhibition (IC50) in assay [3] above 10 µM.
